In US20230293407A1, “Compositions Comprising (Bio)-Alkanediols with Antimicrobials for Product Protection” (Symrise AG, priority 2020, published 2023):

Columns and labels:
Pseudomonas aeruginosa = assay: preservation efficacy test (PET), European Pharmacopoeia 5.1.3; type: cell-based
Staphylococcus aureus = assay: as above; type: cell-based
Escherichia coli = assay: as above; type: cell-based; details: for number of microorganisms, 14 days / number of microorganisms, 28 days: Escherichia coli (EC)
Candida albicans = assay: as above; type: cell-based; details: for count at 2 days / count at 7 days / count at 14 days / count at 28 days: CA, use concentration in label
Aspergillus brasiliensis = assay: as above; type: cell-based; details: for count at 2 days / count at 7 days / count at 14 days / count at 28 days: AB, use concentration in label
bacteria = assay: preservation efficacy test (PET), overview of the effect against bacteria; type: cell-based; details: PET in formulation, result in words on Table 7
yeast = assay: preservation efficacy test (PET), overview of the effect against yeast; type: cell-based, Candida albicans; details: PET in formulation, result in words on Table 7
fungi/mould = assay: preservation efficacy test (PET), overview of the effect against fungi/mould; type: cell-based, Aspergillus brasiliensis; details: PET in formulation, result in words on Table 7
[1] = maximum water solubility of alkanediols, visual observation; type: physicochemical; details: ambient temperature after 24 h storage at 5° C.
Text: The water solubility of a substance is the saturation mass concentration of the substance in water at a given temperature. The determination of the solubility in water relates to essentially pure substances which are stable in water and not volatile. The determination of the water solubility of the alkanediols is further described in the following Example 2.
For the determination of the maximum water solubility of an alkanediol, water and different concentrations of the respective alkanediol were blended by stirring. […] The determination of whether the alkanediol has dissolved in water is based entirely on visual observation.

[2] = 14 days after inoculation, substance at given % in test formulation
[3] = 28 days after inoculation, substance at given % in test formulation
[4] = 2 days after inoculation, substance at given % in test formulation, listed as 0.2% 1,2-heptanediol
[5] = 7 days after inoculation, substance at given % in test formulation, listed as 0.2% 1,2-heptanediol
[6] = 28 days after inoculation, substance at given % in test formulation, listed as 0.2% 1,2-heptanediol
[7] = 28 days after inoculation, substance at given % in test formulation, listed as 0.4% 1,2-heptanediol
[8] = 2 days after inoculation, listed as 0.6% 1,2-heptanediol
[9] = 2 days after inoculation, listed as 0.8% 1,2-heptanediol
[10] = 7 days after inoculation, listed as 0.6% 1,2-heptanediol
[11] = 7 days after inoculation, listed as 0.8% 1,2-heptanediol
[12] = 14 days after inoculation, listed as 0.6% 1,2-heptanediol
[13] = 14 days after inoculation, listed as 0.8% 1,2-heptanediol
[14] = 28 days after inoculation, listed as 0.6% 1,2-heptanediol
[15] = 28 days after inoculation, listed as 0.8% 1,2-heptanediol

Maximum solubility in water [1]: 2.5 % by weight
SMILES: CCCCCC(O)CO (stereo not drawn) [1,2-heptanediol]
PA germ count, 2 days (Pseudomonas aeruginosa; 2 days after inoculation, substance at given % in test formulation): 1
PA germ count, 7 days (Pseudomonas aeruginosa; 7 days after inoculation, substance at given % in test formulation): 1
PA germ count, 14 days (Pseudomonas aeruginosa; [2]): 1
PA germ count, 28 days (Pseudomonas aeruginosa; [3]): 1
count at 2 days (Pseudomonas aeruginosa; PA, 2 days after inoculation, use concentration in label): 1
count at 7 days (Pseudomonas aeruginosa; PA, 7 days after inoculation, use concentration in label): 1
count at 14 days (Pseudomonas aeruginosa; PA, 14 days after inoculation, use concentration in label): 1
count at 28 days (Pseudomonas aeruginosa; PA, 28 days after inoculation, use concentration in label): 1
SA germ count, 2 days (Staphylococcus aureus; [4]): 95.000
SA germ count, 7 days (Staphylococcus aureus; [5]): 1
SA germ count, 14 days (Staphylococcus aureus; [2]): 1
SA germ count, 28 days (Staphylococcus aureus; [3]): 1
number of microorganisms, 2 days (Staphylococcus aureus; PET in shampoo, Staphylococcus aureus (SA), 2 days after inoculation): 10
number of microorganisms, 7 days (Staphylococcus aureus; PET in shampoo, Staphylococcus aureus (SA), 7 days after inoculation): 10
number of microorganisms, 14 days (Staphylococcus aureus; PET in shampoo, Staphylococcus aureus (SA), 14 days after inoculation): 1
number of microorganisms, 28 days (Staphylococcus aureus; PET in shampoo, Staphylococcus aureus (SA), 28 days after inoculation): 1
number of microorganisms, 14 days (Staphylococcus aureus; PET, Staphylococcus aureus (SA), 14 days after inoculation): 1
number of microorganisms, 28 days (Staphylococcus aureus; PET, Staphylococcus aureus (SA), 28 days after inoculation): 1
count at 2 days (Staphylococcus aureus; SA, 2 days after inoculation, use concentration in label, listed as 0.6% 1,2-heptanediol): 1
count at 2 days (Staphylococcus aureus; SA, 2 days after inoculation, use concentration in label, listed as 0.8% 1,2-heptanediol): 1
count at 7 days (Staphylococcus aureus; SA, 7 days after inoculation, use concentration in label, listed as 0.6% 1,2-heptanediol): 1
count at 7 days (Staphylococcus aureus; SA, 7 days after inoculation, use concentration in label, listed as 0.8% 1,2-heptanediol): 1
count at 14 days (Staphylococcus aureus; SA, 14 days after inoculation, use concentration in label): 1
count at 28 days (Staphylococcus aureus; SA, 28 days after inoculation, use concentration in label): 1
EC germ count, 2 days (Escherichia coli; [4]): 38.000
EC germ count, 7 days (Escherichia coli; [5]): 73
EC germ count, 14 days (Escherichia coli; 14 days after inoculation, substance at given % in test formulation, listed as 0.2% 1,2-heptanediol): 1
EC germ count, 14 days (Escherichia coli; 14 days after inoculation, substance at given % in test formulation, listed as 0.4% 1,2-heptanediol): 1
EC germ count, 28 days (Escherichia coli; [6]): 1
EC germ count, 28 days (Escherichia coli; [7]): 1
count at 2 days (Escherichia coli; EC, 2 days after inoculation, use concentration in label, listed as 0.6% 1,2-heptanediol): 1
count at 2 days (Escherichia coli; EC, 2 days after inoculation, use concentration in label, listed as 0.8% 1,2-heptanediol): 1
count at 7 days (Escherichia coli; EC, 7 days after inoculation, use concentration in label, listed as 0.6% 1,2-heptanediol): 1
count at 7 days (Escherichia coli; EC, 7 days after inoculation, use concentration in label, listed as 0.8% 1,2-heptanediol): 1
count at 14 days (Escherichia coli; EC, 14 days after inoculation, use concentration in label): 1
count at 28 days (Escherichia coli; EC, 28 days after inoculation, use concentration in label): 1
number of microorganisms, 14 days (Escherichia coli; PET in shampoo, 14 days after inoculation): 200.000
number of microorganisms, 28 days (Escherichia coli; PET in shampoo, 28 days after inoculation): 1
number of microorganisms, 14 days (Escherichia coli; PET, 14 days after inoculation): 1
number of microorganisms, 28 days (Escherichia coli; PET, 28 days after inoculation): 1
CA germ count, 28 days (Candida albicans; [6]): 620.000
count at 2 days (Candida albicans; [8]): 69.000
count at 2 days (Candida albicans; [9]): 68.000
count at 7 days (Candida albicans; [10]): 2.800
count at 7 days (Candida albicans; [11]): 1
count at 14 days (Candida albicans; [12]): 1
count at 14 days (Candida albicans; [13]): 1
count at 28 days (Candida albicans; [14]): 1
count at 28 days (Candida albicans; [15]): 1
number of microorganisms, 2 days (Candida albicans; PET in shampoo, Candida albicans (CA), 2 days after inoculation): 220.000
number of microorganisms, 7 days (Candida albicans; PET in shampoo, Candida albicans (CA), 7 days after inoculation): 62.000
number of microorganisms, 14 days (Candida albicans; PET in shampoo, Candida albicans (CA), 14 days after inoculation): 8.100
number of microorganisms, 28 days (Candida albicans; PET in shampoo, Candida albicans (CA), 28 days after inoculation): 1
AB germ count, 28 days (Aspergillus brasiliensis; [7]): 1
count at 2 days (Aspergillus brasiliensis; [8]): 510.000
count at 2 days (Aspergillus brasiliensis; [9]): 670.000
count at 7 days (Aspergillus brasiliensis; [10]): 16.000
count at 7 days (Aspergillus brasiliensis; [11]): 410.000
count at 14 days (Aspergillus brasiliensis; [12]): 51.000
count at 14 days (Aspergillus brasiliensis; [13]): 63.000
count at 28 days (Aspergillus brasiliensis; 28 days after inoculation, listed as 0.4% 1,2-heptanediol): 1
count at 28 days (Aspergillus brasiliensis; [14]): 1
count at 28 days (Aspergillus brasiliensis; [15]): 1.100
efficacy against Aspergillus brasiliensis (Aspergillus brasiliensis; PET in formulation, result in words on Table 7): significantly efficacy
number of microorganisms, 2 days (Aspergillus brasiliensis; PET in shampoo, Aspergillus brasiliensis (AB), 2 days after inoculation): 240.000
number of microorganisms, 7 days (Aspergillus brasiliensis; PET in shampoo, Aspergillus brasiliensis (AB), 7 days after inoculation): 220.000
number of microorganisms, 14 days (Aspergillus brasiliensis; PET in shampoo, Aspergillus brasiliensis (AB), 14 days after inoculation): 150.000
number of microorganisms, 28 days (Aspergillus brasiliensis; PET in shampoo, Aspergillus brasiliensis (AB), 28 days after inoculation): 19.000
antimicrobial efficacy against bacteria (bacteria): concentration dependent antimicrobial efficacy
antimicrobial efficacy against yeast (yeast): concentration dependent antimicrobial efficacy
antimicrobial efficacy against fungi (fungi/mould): concentration dependent antimicrobial efficacy
